From PMC9954146, “Anti-Leukaemic Activity of Rilpivirine Is Mediated by Aurora A Kinase Inhibition” (Cancers, 2023)

Tests used:
Experiment in all cases: Kinase panel
Format in all cases: biochemical
AAK1(h) = biological target: T1, AAK1(h) (Homo sapiens, UniProt Q2M2I8); details: read-out: % Residual Activity
T1 construct: purchased Eurofins (KinaseProfiler)
Description: (§1) Kinome-wide selectivity of rilpivirine was measured using the kinase screening and profiling service of Eurofins Scientific (Le bois l’Evêque 86600. Celle-Lévescault, France) and Ki values were determined using radioisotope-based assays by Reaction Biology Corporation (Malvern, PA, USA). The experimental details of Eurofin Scientific and Reaction Biology services for relevant assays are available at https://www.eurofinsdiscoveryservices.com/services/in-Vitro-assays/kinases/kinase-profiler (accessed on 7 July 2021) and https://www.reactionbiology.com (accessed on 7 July 2021), respectively. Ki values were estimated from the corresponding IC50 values using the Cheng–Prusoff equation [21] and the Km (ATP) of individual kinase was used for IC50 determination.

ALK(h) = biological target: T2, ALK(h) (Homo sapiens, UniProt Q9UM73); details: read-out: % Residual Activity
T2 construct: purchased Eurofins (KinaseProfiler)
Description: as §1

Abl (M351T)(h) = biological target: T3, Abl (M351T)(h) (Homo sapiens, UniProt P00519, M351T); details: read-out: % Residual Activity
T3 construct: purchased Eurofins (KinaseProfiler)
Description: as §1

Arg(h) = biological target: T4, Arg(h) (Homo sapiens, UniProt P42684); details: read-out: % Residual Activity
T4 construct: purchased Eurofins (KinaseProfiler)
Description: as §1

Blk(h) = biological target: T5, Blk(h) (Homo sapiens, UniProt P51451); details: read-out: % Residual Activity
T5 construct: purchased Eurofins (KinaseProfiler)
Description: as §1

CDK17/cyclinY(h) = biological target: T6, CDK17/cyclinY(h) (Homo sapiens, UniProt Q00537); details: read-out: % Residual Activity
T6 construct: purchased Eurofins (KinaseProfiler)
Description: as §1

CDKL2(h) = biological target: T7, CDKL2(h) (Homo sapiens, UniProt Q92772); details: read-out: % Residual Activity
T7 construct: purchased Eurofins (KinaseProfiler)
Description: as §1

CaMKI(h) = biological target: T8, CaMKI(h) (Homo sapiens, UniProt Q14012); details: read-out: % Residual Activity
T8 construct: purchased Eurofins (KinaseProfiler)
Description: as §1

CaMKIß(h) = biological target: T9, CaMKIß(h) (Homo sapiens, UniProt Q6P2M8); details: read-out: % Residual Activity
T9 construct: purchased Eurofins (KinaseProfiler)
T9 sequence (Q6P2M8 whole entry): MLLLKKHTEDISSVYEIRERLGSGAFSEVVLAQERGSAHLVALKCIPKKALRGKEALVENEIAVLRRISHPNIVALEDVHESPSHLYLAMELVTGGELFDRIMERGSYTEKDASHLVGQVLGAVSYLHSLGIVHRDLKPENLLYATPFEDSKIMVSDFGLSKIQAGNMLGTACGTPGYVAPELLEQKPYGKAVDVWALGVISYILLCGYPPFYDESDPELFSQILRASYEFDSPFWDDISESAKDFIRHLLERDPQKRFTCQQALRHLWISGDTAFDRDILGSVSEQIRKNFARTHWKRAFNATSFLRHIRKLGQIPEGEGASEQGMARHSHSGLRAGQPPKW
Description: as §1

DCAMKL1(h) = biological target: T10, DCAMKL1(h) (Homo sapiens, UniProt O15075); details: read-out: % Residual Activity
T10 construct: purchased Eurofins (KinaseProfiler)
T10 sequence (O15075 whole entry): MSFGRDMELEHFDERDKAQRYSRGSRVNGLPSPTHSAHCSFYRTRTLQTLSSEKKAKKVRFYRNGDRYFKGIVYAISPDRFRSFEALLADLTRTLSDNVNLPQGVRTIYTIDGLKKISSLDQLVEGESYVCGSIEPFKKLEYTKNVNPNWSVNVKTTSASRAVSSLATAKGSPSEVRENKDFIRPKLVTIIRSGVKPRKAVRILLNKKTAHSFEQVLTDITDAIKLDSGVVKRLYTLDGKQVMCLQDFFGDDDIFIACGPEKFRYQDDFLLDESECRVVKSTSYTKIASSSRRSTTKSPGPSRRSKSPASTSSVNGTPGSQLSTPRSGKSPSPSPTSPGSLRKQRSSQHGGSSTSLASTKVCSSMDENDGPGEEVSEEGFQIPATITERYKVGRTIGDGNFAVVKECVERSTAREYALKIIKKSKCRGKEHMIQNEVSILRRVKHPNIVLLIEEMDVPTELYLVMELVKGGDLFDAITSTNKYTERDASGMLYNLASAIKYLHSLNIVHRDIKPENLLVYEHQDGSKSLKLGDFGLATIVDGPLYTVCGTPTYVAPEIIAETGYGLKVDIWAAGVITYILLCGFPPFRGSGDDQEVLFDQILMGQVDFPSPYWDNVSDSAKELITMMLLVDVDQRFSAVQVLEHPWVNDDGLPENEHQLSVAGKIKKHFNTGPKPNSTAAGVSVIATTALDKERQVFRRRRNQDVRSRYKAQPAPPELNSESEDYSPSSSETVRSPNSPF
Description: as §1

EGFR(T790M)(h) = biological target: T11, EGFR(T790M)(h) (Homo sapiens, UniProt P00533, T790M); details: read-out: % Residual Activity
T11 construct: purchased Eurofins (KinaseProfiler)
Description: as §1

FGFR3(h) = biological target: T12, FGFR3(h) (Homo sapiens, UniProt P22607); details: read-out: % Residual Activity
T12 construct: purchased Eurofins (KinaseProfiler)
Description: as §1

Fgr(h) = biological target: T13, Fgr(h) (Homo sapiens, UniProt P09769); details: read-out: % Residual Activity
T13 construct: purchased Eurofins (KinaseProfiler)
Description: as §1

Flt3(D835Y)(h) = biological target: T14, Flt3(D835Y)(h) (Homo sapiens, UniProt P36888, D835Y); details: read-out: % Residual Activity
T14 construct: purchased Eurofins (KinaseProfiler)
Description: as §1

GCN2(h) = biological target: T15, GCN2(h) (Homo sapiens, UniProt Q9P2K8); details: read-out: % Residual Activity
T15 construct: purchased Eurofins (KinaseProfiler)
Description: as §1

GRK1(h) = biological target: T16, GRK1(h) (Homo sapiens, UniProt Q15835); details: read-out: % Residual Activity
T16 construct: purchased Eurofins (KinaseProfiler)
Description: as §1

GRK3(h) = biological target: T17, GRK3(h) (Homo sapiens, UniProt P35626); details: read-out: % Residual Activity
T17 construct: purchased Eurofins (KinaseProfiler)
Description: as §1

GRK5(h) = biological target: T18, GRK5(h) (Homo sapiens, UniProt P34947); details: read-out: % Residual Activity
T18 construct: purchased Eurofins (KinaseProfiler)
Description: as §1

Hck(h) = biological target: T19, Hck(h) (Homo sapiens, UniProt P08631); details: read-out: % Residual Activity
T19 construct: purchased Eurofins (KinaseProfiler)
Description: as §1

IRAK1(h) = biological target: T20, IRAK1(h) (Homo sapiens, UniProt P51617); details: read-out: % Residual Activity
T20 construct: purchased Eurofins (KinaseProfiler)
Description: as §1

JAK1(h) = biological target: T21, JAK1(h) (Homo sapiens, UniProt P23458); details: read-out: % Residual Activity
T21 construct: purchased Eurofins (KinaseProfiler)
Description: as §1

KDR(h) = biological target: T22, KDR(h) (Homo sapiens, UniProt P35968); details: read-out: % Residual Activity
T22 construct: purchased Eurofins (KinaseProfiler)
Description: as §1

MAP4K3(h) = biological target: T23, MAP4K3(h) (Homo sapiens, UniProt Q8IVH8); details: read-out: % Residual Activity
T23 construct: purchased Eurofins (KinaseProfiler)
Description: as §1

MLK4(h) = biological target: T24, MLK4(h) (Homo sapiens, UniProt Q5TCX8); details: read-out: % Residual Activity
T24 construct: purchased Eurofins (KinaseProfiler)
Description: as §1

MOK(h) = biological target: T25, MOK(h) (Homo sapiens, UniProt Q9UQ07); details: read-out: % Residual Activity
T25 construct: purchased Eurofins (KinaseProfiler)
Description: as §1

MRCKβ(h) = biological target: T26, MRCKβ(h) (Homo sapiens, UniProt Q9Y5S2); details: read-out: % Residual Activity
T26 construct: purchased Eurofins (KinaseProfiler)
Description: as §1

MSSK1(h) = biological target: T27, MSSK1(h) (Homo sapiens, UniProt Q9UPE1); details: read-out: % Residual Activity
T27 construct: purchased Eurofins (KinaseProfiler)
Description: as §1

MST1(h) = biological target: T28, MST1(h) (Homo sapiens, UniProt Q13043); details: read-out: % Residual Activity
T28 construct: purchased Eurofins (KinaseProfiler)
T28 sequence (Q13043 whole entry): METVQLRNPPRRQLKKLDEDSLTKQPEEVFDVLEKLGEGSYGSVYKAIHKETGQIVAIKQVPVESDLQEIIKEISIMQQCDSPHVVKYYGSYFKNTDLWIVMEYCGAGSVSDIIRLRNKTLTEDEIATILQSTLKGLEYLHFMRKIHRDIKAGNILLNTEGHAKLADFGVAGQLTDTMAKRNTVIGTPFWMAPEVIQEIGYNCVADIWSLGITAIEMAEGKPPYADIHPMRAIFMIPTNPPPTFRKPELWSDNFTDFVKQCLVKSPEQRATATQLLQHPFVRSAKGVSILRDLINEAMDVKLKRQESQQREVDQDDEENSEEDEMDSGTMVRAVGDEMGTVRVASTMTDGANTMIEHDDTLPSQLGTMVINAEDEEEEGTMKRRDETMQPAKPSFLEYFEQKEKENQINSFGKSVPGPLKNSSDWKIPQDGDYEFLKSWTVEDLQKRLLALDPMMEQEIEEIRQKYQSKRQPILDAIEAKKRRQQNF
Description: as §1

[1] = biological target: T29, PI3 Kinase (p110b/p85a)(h) (Homo sapiens, UniProt P42338); details: read-out: % Residual Activity
T29 construct: purchased Eurofins (KinaseProfiler)
T29 sequence (P42338 whole entry): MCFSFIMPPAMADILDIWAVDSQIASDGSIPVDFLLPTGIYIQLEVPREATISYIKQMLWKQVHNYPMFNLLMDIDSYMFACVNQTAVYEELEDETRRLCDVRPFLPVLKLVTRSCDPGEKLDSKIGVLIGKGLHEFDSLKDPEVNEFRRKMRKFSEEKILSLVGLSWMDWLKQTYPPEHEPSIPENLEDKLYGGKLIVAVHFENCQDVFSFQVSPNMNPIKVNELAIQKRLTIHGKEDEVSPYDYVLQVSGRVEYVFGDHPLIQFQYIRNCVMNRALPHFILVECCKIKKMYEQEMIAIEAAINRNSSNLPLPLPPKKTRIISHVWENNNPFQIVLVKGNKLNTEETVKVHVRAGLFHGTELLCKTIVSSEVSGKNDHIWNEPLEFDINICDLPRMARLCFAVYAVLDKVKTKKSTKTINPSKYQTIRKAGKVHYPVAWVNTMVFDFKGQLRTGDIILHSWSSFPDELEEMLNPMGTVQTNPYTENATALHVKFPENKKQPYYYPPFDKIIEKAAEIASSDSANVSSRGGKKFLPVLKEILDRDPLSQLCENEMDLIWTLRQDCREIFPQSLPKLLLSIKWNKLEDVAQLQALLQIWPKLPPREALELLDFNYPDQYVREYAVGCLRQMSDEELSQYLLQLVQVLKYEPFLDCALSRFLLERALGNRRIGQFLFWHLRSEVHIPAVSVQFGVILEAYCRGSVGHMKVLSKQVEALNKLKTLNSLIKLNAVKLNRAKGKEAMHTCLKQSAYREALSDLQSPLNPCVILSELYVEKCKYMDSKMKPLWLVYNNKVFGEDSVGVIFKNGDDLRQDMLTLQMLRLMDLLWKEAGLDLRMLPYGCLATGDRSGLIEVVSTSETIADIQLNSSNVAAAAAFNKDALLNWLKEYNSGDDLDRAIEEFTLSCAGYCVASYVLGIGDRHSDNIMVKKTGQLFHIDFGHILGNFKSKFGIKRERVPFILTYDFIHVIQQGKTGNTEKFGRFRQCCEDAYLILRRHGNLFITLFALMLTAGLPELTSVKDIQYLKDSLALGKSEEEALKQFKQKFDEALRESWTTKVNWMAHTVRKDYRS
T29 sequence (P27986 whole entry partner): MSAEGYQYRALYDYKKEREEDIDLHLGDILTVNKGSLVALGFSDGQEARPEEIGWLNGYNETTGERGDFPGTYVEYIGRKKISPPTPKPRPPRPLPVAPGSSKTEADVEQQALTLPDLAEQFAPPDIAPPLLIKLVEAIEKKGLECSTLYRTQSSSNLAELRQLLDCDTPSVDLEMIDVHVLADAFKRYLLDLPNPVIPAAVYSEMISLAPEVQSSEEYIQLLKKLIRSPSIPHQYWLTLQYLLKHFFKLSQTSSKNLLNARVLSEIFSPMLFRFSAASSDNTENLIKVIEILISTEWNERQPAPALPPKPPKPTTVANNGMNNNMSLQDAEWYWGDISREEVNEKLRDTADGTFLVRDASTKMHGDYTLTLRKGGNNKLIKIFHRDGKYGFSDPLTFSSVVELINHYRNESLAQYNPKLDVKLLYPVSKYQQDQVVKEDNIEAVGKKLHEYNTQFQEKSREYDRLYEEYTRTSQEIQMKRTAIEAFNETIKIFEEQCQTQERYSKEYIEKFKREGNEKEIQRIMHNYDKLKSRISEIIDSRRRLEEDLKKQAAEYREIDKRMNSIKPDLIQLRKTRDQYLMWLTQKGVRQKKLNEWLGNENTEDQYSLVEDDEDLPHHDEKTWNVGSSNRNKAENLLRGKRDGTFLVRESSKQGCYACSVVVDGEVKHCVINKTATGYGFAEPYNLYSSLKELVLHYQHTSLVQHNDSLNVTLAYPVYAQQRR
Description: as §1

[2] = biological target: T30, PI3 Kinase (p110d/p85a)(h) (Homo sapiens, UniProt O00329); details: read-out: % Residual Activity
T30 construct: purchased Eurofins (KinaseProfiler)
Description: as §1

PIP5K1a(h) = PIP5K1a(h) (Homo sapiens, UniProt Q99755); details: read-out: % Residual Activity
Chain of PIP5K1a(h) (Q99755 whole entry): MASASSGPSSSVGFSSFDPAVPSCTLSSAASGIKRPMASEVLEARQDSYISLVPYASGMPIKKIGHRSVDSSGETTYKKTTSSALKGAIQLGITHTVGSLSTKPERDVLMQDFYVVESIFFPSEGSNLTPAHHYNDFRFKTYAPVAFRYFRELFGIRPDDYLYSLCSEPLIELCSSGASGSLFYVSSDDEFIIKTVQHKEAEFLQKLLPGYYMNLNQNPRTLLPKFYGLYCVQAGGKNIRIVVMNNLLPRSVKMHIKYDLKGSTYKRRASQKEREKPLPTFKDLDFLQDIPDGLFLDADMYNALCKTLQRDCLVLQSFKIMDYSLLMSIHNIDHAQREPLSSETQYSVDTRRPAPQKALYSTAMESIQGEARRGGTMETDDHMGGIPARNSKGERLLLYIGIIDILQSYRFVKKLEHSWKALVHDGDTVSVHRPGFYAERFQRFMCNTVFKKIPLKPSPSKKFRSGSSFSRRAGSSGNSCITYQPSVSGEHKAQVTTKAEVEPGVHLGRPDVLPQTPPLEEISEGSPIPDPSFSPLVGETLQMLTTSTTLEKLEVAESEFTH
Description: as §1

PKBα(h) = biological target: T31, PKBα(h) (Homo sapiens, UniProt P31749); details: read-out: % Residual Activity
T31 construct: purchased Eurofins (KinaseProfiler)
Description: as §1

PKBγ(h) = biological target: T32, PKBγ(h) (Homo sapiens, UniProt Q9Y243); details: read-out: % Residual Activity
T32 construct: purchased Eurofins (KinaseProfiler)
Description: as §1

PKCβII(h) = biological target: T33, PKCβII(h) (Homo sapiens, UniProt P05771); details: read-out: % Residual Activity
T33 construct: purchased Eurofins (KinaseProfiler)
Description: as §1

PKCζ(h) = biological target: T34, PKCζ(h) (Homo sapiens, UniProt Q05513); details: read-out: % Residual Activity
T34 construct: purchased Eurofins (KinaseProfiler)
Description: as §1

Pim-1(h) = biological target: T35, Pim-1(h) (Homo sapiens, UniProt P11309)
T35 construct: purchased Eurofins (KinaseProfiler)
T35 sequence (P11309 whole entry): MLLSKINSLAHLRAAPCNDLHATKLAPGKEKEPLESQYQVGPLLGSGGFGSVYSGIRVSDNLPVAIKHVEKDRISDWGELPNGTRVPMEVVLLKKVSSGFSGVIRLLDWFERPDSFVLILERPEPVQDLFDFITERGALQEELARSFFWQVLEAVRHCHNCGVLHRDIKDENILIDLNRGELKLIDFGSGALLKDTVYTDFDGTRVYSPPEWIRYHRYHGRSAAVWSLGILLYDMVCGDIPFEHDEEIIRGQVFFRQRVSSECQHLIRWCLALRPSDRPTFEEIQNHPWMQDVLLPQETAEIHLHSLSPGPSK
Description: as §1

Rse(h) = biological target: T36, Rse(h) (Homo sapiens, UniProt Q06418); details: read-out: % Residual Activity
T36 construct: purchased Eurofins (KinaseProfiler)
Description: as §1

TGFBR2(h) = biological target: T37, TGFBR2(h) (Homo sapiens, UniProt P37173); details: read-out: % Residual Activity
T37 construct: purchased Eurofins (KinaseProfiler)
T37 sequence (P37173 23-567): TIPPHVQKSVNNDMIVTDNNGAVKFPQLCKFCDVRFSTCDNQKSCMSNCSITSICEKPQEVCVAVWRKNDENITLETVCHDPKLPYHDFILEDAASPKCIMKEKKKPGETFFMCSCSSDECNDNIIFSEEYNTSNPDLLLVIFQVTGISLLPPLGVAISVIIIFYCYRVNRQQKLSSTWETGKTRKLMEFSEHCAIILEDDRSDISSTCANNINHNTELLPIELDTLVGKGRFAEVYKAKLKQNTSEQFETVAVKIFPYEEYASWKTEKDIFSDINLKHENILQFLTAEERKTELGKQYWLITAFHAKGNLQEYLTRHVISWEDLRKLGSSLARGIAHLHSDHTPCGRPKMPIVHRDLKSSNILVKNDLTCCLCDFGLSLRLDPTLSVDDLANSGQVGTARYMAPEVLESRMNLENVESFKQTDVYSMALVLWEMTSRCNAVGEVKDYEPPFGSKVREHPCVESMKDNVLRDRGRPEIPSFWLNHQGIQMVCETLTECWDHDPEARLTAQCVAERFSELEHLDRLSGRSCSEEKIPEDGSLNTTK
Description: as §1

Q: Which remaining activity at 1 µM (AAK1(h)) does the source give for `Cc1cc(/C=C/C#N)cc(C)c1Nc1ccnc(Nc2ccc(C#N)cc2)n1` [rilpivirine, (E)-4-((4-((4-(2-cyanoethenyl)-2,6-dimethylphenyl)amino)pyrimidin-2-yl)amino)benzonitrile] here?
A: 87%

Q: And the remaining activity at 1 µM (ALK(h))?
A: 80%

Q: And the remaining activity at 1 µM (Abl (M351T)(h))?
A: 74%

Q: What about the remaining activity at 1 µM (Arg(h)) of the same compound?
A: 70%

Q: What about the remaining activity at 1 µM (Blk(h)) of the same compound?
A: 73%

Q: And the remaining activity at 1 µM (CDK17/cyclinY(h))?
A: 78%

Q: What about the remaining activity at 1 µM (CDKL2(h)) of the same compound?
A: 100%

Q: And the remaining activity at 1 µM (CaMKI(h))?
A: 92%

Q: And the remaining activity at 1 µM (CaMKIß(h))?
A: 92%

Q: And the remaining activity at 1 µM (DCAMKL1(h))?
A: 91%

Q: And the remaining activity at 1 µM (EGFR(T790M)(h))?
A: 79%

Q: What about the remaining activity at 1 µM (FGFR3(h)) of the same compound?
A: 98%

Q: And the remaining activity at 1 µM (Fgr(h))?
A: 37%

Q: What about the remaining activity at 1 µM (Flt3(D835Y)(h)) of the same compound?
A: 94%

Q: And the remaining activity at 1 µM (GCN2(h))?
A: 93%

Q: What about the remaining activity at 1 µM (GRK1(h)) of the same compound?
A: 103%

Q: What about the remaining activity at 1 µM (GRK3(h)) of the same compound?
A: 92%

Q: And the remaining activity at 1 µM (GRK5(h))?
A: 96%

Q: And the remaining activity at 1 µM (Hck(h))?
A: 50%

Q: What about the remaining activity at 1 µM (IRAK1(h)) of the same compound?
A: 84%

Q: And the remaining activity at 1 µM (JAK1(h))?
A: 79%

Q: What about the remaining activity at 1 µM (KDR(h)) of the same compound?
A: 85%

Q: And the remaining activity at 1 µM (MAP4K3(h))?
A: 91%

Q: What about the remaining activity at 1 µM (MLK4(h)) of the same compound?
A: 95%

Q: And the remaining activity at 1 µM (MOK(h))?
A: 92%

Q: What about the remaining activity at 1 µM (MRCKβ(h)) of the same compound?
A: 87%

Q: And the remaining activity at 1 µM (MSSK1(h))?
A: 84%

Q: What about the remaining activity at 1 µM (MST1(h)) of the same compound?
A: 84%

Q: And the remaining activity at 1 µM [1]?
A: 104%

Q: What about the remaining activity at 1 µM [2] of the same compound?
A: 89%

Q: And the remaining activity at 1 µM (PIP5K1a(h))?
A: 96%

Q: And the remaining activity at 1 µM (PKBα(h))?
A: 80%

Q: And the remaining activity at 1 µM (PKBγ(h))?
A: 86%

Q: What about the remaining activity at 1 µM (PKCβII(h)) of the same compound?
A: 94%

Q: What about the remaining activity at 1 µM (PKCζ(h)) of the same compound?
A: 80%

Q: And the remaining activity at 1 µM (Pim-1(h); 1 μM, read-out: % Residual Activity)?
A: 22%

Q: And the inhibition at 1 µM (Pim-1(h); PIM1, 1 μM, read-out: inhibitory activity)?
A: > 70%

Q: What about the remaining activity at 1 µM (Rse(h)) of the same compound?
A: 66%

Q: What about the remaining activity at 1 µM (TGFBR2(h)) of the same compound?
A: 94%
